Data reported in ChEMBL document CHEMBL1201862, “PubChem BioAssay data set” (2004).
One block for each molecule: values may come before it. The source made the active and inactive calls.

Columns and labels:
Format in all cases: functional
[1] = molecular target: Voltage-dependent T-type calcium channel subunit alpha-1H (Homo sapiens, UniProt O95180); test: Cav3.2 T-type channel inhibitors, cell-based, synthetic library set 1, calcium flux (AID 493022)
Hexokinase = Hexokinase (Trypanosoma brucei, UniProt Q38C41); test: Confirmation assay for inhibitors of Trypanosoma brucei hexokinase 1-Analogue-first series. [Related pubchem assays (depositor defined):AID1430, AID1632, AID2516, AID2560, AID2579, AID2600, AID449725, AID492951]
Chain of Hexokinase (Q38C41 whole entry): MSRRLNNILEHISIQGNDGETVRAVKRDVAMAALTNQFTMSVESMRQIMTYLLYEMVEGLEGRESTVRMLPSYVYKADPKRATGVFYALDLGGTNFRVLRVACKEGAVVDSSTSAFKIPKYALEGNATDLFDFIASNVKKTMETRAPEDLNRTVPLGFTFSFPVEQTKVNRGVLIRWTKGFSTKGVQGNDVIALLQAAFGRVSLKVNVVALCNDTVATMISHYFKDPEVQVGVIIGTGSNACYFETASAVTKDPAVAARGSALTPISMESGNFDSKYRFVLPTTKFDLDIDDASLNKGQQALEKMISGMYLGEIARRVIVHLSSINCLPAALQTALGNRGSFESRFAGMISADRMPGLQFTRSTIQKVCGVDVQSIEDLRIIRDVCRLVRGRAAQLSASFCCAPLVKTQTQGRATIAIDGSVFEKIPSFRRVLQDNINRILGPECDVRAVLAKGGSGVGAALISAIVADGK

[2] = molecular target: Delta-type opioid receptor (Homo sapiens, UniProt P41143); test: SAR Analysis of Antagonists of the DOR Receptor using an Image-Based Assay - Set 3. [Related pubchem assays (depositor defined):AID1777, AID1785];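 also: U2OS cells expressing DOR1 and beta-arrestin GFP stimulated with 100 nM SNC80; imaging of GFP-tagged beta-arrestin moving into spots after receptor activation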
Chain of Delta-type opioid receptor (P41143 whole entry): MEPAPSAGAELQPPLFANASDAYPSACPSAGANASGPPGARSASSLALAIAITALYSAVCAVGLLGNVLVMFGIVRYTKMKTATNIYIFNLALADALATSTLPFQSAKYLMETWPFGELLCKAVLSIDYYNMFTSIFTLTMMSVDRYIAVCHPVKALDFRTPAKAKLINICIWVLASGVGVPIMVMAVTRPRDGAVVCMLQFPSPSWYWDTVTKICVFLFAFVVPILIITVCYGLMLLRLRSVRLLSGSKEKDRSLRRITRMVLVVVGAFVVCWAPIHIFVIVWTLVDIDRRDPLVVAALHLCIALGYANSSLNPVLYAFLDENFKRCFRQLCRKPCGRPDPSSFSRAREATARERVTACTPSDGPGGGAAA

[3] = molecular target: T1, Kappa-type opioid receptor (Homo sapiens, UniProt P41145); test: SAR analysis of small molecule antagonists of the kappa opioid receptor via a luminescent beta-arrestin assay - Set 3. [Related pubchem assays (depositor defined):AID1777, AID1778, AID1785, AID1786, AID1966, AID2133, AID2136, AID2285, AID2495]
T1 sequence (P41145 whole entry): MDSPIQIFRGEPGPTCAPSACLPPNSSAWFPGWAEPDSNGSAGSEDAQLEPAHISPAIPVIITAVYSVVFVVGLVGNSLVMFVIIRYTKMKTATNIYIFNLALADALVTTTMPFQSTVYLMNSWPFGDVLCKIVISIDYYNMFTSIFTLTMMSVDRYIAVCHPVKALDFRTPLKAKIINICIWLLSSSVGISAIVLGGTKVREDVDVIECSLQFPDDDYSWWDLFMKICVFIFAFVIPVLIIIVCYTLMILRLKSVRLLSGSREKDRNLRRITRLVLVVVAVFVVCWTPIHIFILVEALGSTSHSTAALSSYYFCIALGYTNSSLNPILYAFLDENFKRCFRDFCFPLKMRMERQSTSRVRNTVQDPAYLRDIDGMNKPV

Mu-type opioid receptor = Mu-type opioid receptor (Homo sapiens, UniProt P35372); test: SAR Analysis of Antagonists of the MOR Receptor using an Image-Based Assay - Set 3. [Related pubchem assays (depositor defined):AID1777, AID1785, AID1786, AID1966, AID2133, AID2136, AID2284, AID2285, AID2420]
Chain of Mu-type opioid receptor (P35372 whole entry): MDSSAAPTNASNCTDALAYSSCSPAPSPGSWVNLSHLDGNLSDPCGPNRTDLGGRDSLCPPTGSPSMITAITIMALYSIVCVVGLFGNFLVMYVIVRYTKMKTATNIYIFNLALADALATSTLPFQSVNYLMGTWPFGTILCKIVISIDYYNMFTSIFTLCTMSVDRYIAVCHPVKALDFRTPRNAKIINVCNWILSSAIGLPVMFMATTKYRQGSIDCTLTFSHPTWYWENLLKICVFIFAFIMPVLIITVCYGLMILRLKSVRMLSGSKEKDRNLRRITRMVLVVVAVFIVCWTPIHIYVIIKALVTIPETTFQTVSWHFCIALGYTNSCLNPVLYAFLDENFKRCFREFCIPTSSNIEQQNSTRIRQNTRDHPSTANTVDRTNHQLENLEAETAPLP

[4] = molecular target: T1, Kappa-type opioid receptor; test: SAR analysis of Antagonists of the Kappa Opioid Receptor (KOR) using an Image-Based Assay - Set 3. [Related pubchem assays (depositor defined):AID1777, AID1785]
Coagulation factor XII = molecular target: T2, Coagulation factor XII (Homo sapiens, UniProt P00748); test: Factor XIIa Dose Response Confirmation from Single Well HTS. [Related pubchem assays (depositor defined):AID701]
T2 sequence (P00748 whole entry): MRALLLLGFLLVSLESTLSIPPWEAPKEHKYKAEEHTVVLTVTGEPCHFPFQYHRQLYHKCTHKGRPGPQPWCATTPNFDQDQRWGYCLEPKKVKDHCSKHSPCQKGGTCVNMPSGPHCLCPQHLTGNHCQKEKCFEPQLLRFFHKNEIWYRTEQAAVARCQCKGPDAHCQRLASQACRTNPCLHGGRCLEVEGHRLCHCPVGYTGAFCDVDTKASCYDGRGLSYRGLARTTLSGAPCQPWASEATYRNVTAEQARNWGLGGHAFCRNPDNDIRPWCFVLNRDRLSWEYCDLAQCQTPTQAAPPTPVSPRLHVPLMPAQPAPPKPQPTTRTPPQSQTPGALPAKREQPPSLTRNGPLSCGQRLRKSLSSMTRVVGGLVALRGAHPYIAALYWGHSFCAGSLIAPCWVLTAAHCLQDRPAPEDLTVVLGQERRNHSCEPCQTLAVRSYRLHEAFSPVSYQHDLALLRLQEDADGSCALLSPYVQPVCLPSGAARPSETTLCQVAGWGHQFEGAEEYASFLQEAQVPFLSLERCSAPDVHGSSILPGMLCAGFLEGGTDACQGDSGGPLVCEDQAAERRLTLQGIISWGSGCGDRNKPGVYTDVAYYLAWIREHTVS

Chain of Voltage-dependent T-type calcium channel subunit alpha-1H (O95180 whole entry): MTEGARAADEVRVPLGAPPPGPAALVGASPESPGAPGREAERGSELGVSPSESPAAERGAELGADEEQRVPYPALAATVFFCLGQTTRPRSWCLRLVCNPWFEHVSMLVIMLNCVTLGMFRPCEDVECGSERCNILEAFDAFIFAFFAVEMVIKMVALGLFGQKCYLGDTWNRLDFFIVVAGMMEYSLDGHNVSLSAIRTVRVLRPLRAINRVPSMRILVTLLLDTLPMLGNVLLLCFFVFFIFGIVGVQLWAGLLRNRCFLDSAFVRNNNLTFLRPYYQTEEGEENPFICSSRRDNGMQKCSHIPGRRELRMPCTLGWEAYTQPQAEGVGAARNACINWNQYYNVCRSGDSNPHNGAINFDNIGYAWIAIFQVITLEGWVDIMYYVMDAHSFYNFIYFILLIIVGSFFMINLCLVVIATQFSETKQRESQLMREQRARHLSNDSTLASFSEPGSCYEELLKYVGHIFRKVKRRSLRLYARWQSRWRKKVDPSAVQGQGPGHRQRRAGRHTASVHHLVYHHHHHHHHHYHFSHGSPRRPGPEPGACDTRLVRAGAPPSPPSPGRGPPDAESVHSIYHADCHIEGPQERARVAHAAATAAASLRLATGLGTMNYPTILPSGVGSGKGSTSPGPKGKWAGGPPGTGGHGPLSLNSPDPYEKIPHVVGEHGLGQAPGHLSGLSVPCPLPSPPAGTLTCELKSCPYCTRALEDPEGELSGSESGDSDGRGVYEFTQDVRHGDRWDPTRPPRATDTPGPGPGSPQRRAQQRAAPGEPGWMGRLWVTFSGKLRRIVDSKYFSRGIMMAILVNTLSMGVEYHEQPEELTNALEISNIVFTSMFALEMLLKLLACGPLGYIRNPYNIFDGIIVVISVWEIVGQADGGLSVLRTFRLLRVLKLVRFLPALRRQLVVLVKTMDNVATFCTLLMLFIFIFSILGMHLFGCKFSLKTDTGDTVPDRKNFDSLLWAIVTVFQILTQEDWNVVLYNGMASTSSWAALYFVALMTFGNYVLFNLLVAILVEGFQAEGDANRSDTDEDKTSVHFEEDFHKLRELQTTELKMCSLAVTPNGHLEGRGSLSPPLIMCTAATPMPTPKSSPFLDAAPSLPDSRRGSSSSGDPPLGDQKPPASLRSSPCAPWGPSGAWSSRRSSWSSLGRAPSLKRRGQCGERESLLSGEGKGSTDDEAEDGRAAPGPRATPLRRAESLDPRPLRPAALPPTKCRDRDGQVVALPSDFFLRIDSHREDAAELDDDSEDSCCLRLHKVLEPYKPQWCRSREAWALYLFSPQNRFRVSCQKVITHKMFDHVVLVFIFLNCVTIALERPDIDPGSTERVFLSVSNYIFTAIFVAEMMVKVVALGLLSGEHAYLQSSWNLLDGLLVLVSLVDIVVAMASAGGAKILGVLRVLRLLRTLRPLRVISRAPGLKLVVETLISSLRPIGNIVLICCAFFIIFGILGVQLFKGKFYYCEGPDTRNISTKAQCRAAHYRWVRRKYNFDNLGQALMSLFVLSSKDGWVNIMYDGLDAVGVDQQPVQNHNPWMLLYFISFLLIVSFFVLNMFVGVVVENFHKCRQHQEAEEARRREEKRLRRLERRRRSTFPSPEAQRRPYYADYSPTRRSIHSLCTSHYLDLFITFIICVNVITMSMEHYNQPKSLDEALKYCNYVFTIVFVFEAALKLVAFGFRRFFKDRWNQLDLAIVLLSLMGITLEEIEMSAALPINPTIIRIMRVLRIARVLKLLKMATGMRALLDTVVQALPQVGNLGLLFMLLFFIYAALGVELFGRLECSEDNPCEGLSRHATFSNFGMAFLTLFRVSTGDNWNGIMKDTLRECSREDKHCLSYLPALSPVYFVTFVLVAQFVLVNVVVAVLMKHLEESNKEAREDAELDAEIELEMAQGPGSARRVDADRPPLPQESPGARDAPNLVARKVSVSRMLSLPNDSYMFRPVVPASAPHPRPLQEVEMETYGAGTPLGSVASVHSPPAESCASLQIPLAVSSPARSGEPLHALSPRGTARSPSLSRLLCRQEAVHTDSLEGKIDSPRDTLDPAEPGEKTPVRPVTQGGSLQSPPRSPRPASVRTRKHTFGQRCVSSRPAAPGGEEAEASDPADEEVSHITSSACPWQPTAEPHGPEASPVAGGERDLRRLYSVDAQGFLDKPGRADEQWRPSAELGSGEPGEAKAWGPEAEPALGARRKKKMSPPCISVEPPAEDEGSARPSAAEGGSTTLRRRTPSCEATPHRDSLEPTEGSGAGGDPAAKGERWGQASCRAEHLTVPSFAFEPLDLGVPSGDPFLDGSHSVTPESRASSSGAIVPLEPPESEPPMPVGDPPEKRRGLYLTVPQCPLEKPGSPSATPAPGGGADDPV

- EC50 [1]: 1.4 µM (active)
Structure (SMILES): Cc1ccc(-c2nnc(NC(=O)COc3ccc(Cl)cc3)o2)cc1C

Structure (SMILES): COc1ccccc1-n1sc2ccccc2c1=O
- IC50 (Hexokinase): 7.9 µM (active)

- IC50 [2]: > 32 µM (inactive)
- IC50 [3]: > 20 µM (inactive)
- IC50 (Mu-type opioid receptor): > 32 µM (inactive)
- IC50 [4]: > 32 µM (inactive)
Structure (SMILES): Cc1cccc(S(=O)(=O)NCc2ccc(C(=O)NCCN(Cc3ccccc3)Cc3ccccc3)cc2)c1

- IC50 (Coagulation factor XII): > 50 µM (inactive)
Structure (SMILES): COc1ccc(/C=c2/sc3n(c2=O)NC2(c4ccccc4)N(C)C(=O)N(C)C2(c2ccccc2)N=3)cc1 (configuration not stated)
